From ChEMBL document CHEMBL6153159, “Eperisone Analogs, Rescuers of MiaB Defects As a Prokaryotic Homologue of CDKAL1, Suppress Blood Glucose Elevation in Rats” (ACS Med Chem Lett, 2025)
Active and inactive are the calls of the source. The calls are words filed in the database; no cut-off is given here.

Columns and labels:
[1] = molecular target: T1, Threonylcarbamoyladenosine tRNA methylthiotransferase (Homo sapiens) (UniProt Q5VV42); assay: Rescue of mistranslation activity in CDKAL1 (unknown origin) extracted from Escherichia coli harboring MIaB deficient at 10 uM incubated for 1 hr by dual luciferase assay
T1 sequence (whole entry): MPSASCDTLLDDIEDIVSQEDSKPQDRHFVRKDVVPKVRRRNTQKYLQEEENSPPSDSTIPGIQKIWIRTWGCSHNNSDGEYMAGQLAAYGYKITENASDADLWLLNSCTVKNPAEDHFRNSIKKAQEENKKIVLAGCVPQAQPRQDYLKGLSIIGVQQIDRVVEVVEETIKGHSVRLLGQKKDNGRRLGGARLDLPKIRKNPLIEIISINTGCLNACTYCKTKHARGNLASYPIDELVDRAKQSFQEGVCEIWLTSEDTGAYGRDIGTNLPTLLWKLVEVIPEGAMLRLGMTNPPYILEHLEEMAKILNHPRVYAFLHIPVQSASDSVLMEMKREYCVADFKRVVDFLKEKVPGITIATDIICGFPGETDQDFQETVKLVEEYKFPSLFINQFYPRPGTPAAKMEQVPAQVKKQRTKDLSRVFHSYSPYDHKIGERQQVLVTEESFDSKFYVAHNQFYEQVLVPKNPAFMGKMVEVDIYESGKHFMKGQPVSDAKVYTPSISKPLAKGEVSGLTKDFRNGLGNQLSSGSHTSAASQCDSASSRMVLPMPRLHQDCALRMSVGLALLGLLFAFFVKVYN

Rattus norvegicus [2] = assay: Hypoglycemic effect in male Wister rat assessed as reduction in blood glucose level at 100 mg/kg, sc measured immediately after oral glucose challenge by OGTT analysis; format: functional, organism-based; conditions: time 0.0 min
[3] = Drug concentration in Wister rat plasma at 100 mg/kg, po measured after 60 mins; format: ADME, organism-based; conditions: Wistar
Rattus norvegicus [4] = assay: Antihyperglycemic activity in male Wister rat assessed as reduction in blood glucose level at 100 mg/kg, sc measured at 60 mins after oral glucose challenge by OGTT analysis; format: functional, organism-based
[5] = Drug concentration in Wister rat plasma at 100 mg/kg, sc measured after 60 mins; format: ADME, organism-based; conditions: Wistar
MIN6 [6] = assay: Cytotoxicity against mouse MIN6 cells at 10 uM by MTT assay relative to control; format: toxicity, cell-based; conditions: min6, 10 µM
Rattus norvegicus [7] = assay: Antihyperglycemic activity in male Wister rat assessed as reduction in blood glucose level at 100 mg/kg, sc measured at 30 mins after oral glucose challenge by OGTT analysis; format: functional, organism-based
MIN6 [8] = assay: Induction of insulin secretion in mouse MIN6 cells at 10 uM incubated for 24 hrs by ELISA method; format: functional, cell-based
MIN6 [9] = assay: Induction of insulin secretion in mouse MIN6 cells at 3 uM incubated for 24 hrs by ELISA method; format: functional, cell-based

Compound | Ratio [1] | further results
CC(C)(C)c1ccc(C(=O)CCN2CCCCC2)cc1 | 0.8 | –
CC(C)[C@H]1CC[C@H](C(=O)N[C@H](Cc2ccccc2)C(=O)O)CC1 | – | Activity (Rattus norvegicus [2]): Active
CCc1ccc(C(=O)C(C)(C)CN2CCCCC2)cc1 | 0.66 | –
CCc1ccc(C(=O)C(C)CN2CCCCC2)cc1 (stereo not drawn) | 0.7 | –
CCc1ccc(C(=O)CCN2CCCCC2)cc1 | 0.8 | –
COCCOc1ccc(C(=O)C(C)CN2CCCCC2)cc1.Cl (racemic) | 0.53 | concentration at 1 h [3]: ≤ 2000 nM; Activity (Rattus norvegicus [4]): Active; Activity (Rattus norvegicus [2]): inactive; concentration at 1 h [5]: > 15 µM; Activity (MIN6 [6]): 3%; Activity (Rattus norvegicus [7]): Active; Activity (MIN6 [8]): Active
CC(CN1CCCCC1)C(=O)c1ccc(C(C)(C)C)cc1.Cl (racemic) | 0.44 | concentration at 1 h [3]: ≤ 2000 nM; Activity (Rattus norvegicus [4]): Active; Activity (Rattus norvegicus [2]): inactive; concentration at 1 h [5]: > 15 µM; Activity (MIN6 [6]): 4%; Activity (Rattus norvegicus [7]): Active; Activity (MIN6 [9]): Active
CC(C)(C)c1ccc(C(=O)C(CN2CCCCC2)C(=O)O)cc1 (racemic) | 1.16 | –
CC(C)COc1ccc(C(=O)C(C)CN2CCCCC2)cc1 (racemic) | 0.88 | –
CC(C)Oc1ccc(C(=O)C(C)CN2CCCCC2)cc1 (racemic) | 0.93 | –
CC(CN1CCCCC1)C(=O)c1ccc(Br)cc1 (racemic) | 0.84 | –
CC(CN1CCCCC1)C(=O)c1ccc(C(C)C)cc1 (racemic) | 0.78 | –
CC(CN1CCCCC1)C(=O)c1ccc(C(F)(F)F)cc1 (racemic) | 0.87 | –
CC(CN1CCCCC1)C(=O)c1ccc(C2CCCCC2)cc1 (racemic) | 1.3 | –
CC(CN1CCCCC1)C(=O)c1ccc(CC(C)(C)C)cc1 (racemic) | 1.05 | –
CC(CN1CCCCC1)C(=O)c1ccc(Cl)cc1 (racemic) | 0.86 | –
CC(CN1CCCCC1)C(=O)c1ccc(F)cc1 (racemic) | 1.08 | –
CC(CN1CCCCC1)C(=O)c1ccc(O)cc1 (racemic) | 0.71 | –
CC(CN1CCCCC1)C(=O)c1ccc(OCCO)cc1 (racemic) | 0.82 | –
CC(CN1CCCCC1)C(=O)c1cccc(C(C)(C)C)c1 (racemic) | 0.95 | –
CCC(C)(C)c1ccc(C(=O)C(C)CN2CCCCC2)cc1 (racemic) | 0.85 | –
CCC(CN1CCCCC1)C(=O)c1ccc(C(C)(C)C)cc1 (racemic) | 0.73 | –

Compound | Ratio [1] | further results
CCCCOc1ccc(C(=O)C(C)CN2CCCCC2)cc1 (racemic) | 0.8 | –
CCCOc1ccc(C(=O)C(C)CN2CCCCC2)cc1 (racemic) | 0.85 | –
CCCc1ccc(C(=O)C(C)CN2CCCCC2)cc1 (racemic) | 1.01 | –
CCOc1ccc(C(=O)C(C)CN2CCCCC2)cc1 (racemic) | 0.84 | –
CCc1ccc(C(=O)C(C)CC2CCNCC2)cc1 (racemic) | 0.75 | –
CCc1ccc(C(=O)C(C)CN2CCC(C)CC2)cc1 (racemic) | 0.98 | –
CCc1ccc(C(=O)C(C)CN2CCC(OC)CC2)cc1 (racemic) | 1.13 | –
CCc1ccc(C(=O)C(C)CN2CCC(c3ccccc3)CC2)cc1 (racemic) | 1.01 | –
CCc1ccc(C(=O)C(C)CN2CCCC2)cc1 (racemic) | 1.01 | –
CCc1ccc(C(=O)C(C)CN2CCCCC2)o1 (racemic) | 0.99 | –
CCc1ccc(C(=O)C(C)CN2CCCCC2)s1 (racemic) | 0.63 | –
CCc1ccc(C(=O)C(C)CN2CCCCCC2)cc1 (racemic) | 1.01 | –
CCc1ccc(C(=O)C(C)CN2CCN(C)CC2)cc1 (racemic) | 0.7 | –
CCc1ccc(C(=O)C(C)CN2CCN(CC)CC2)cc1 (racemic) | 0.71 | –
CCc1ccc(C(=O)C(C)CN2CCOCC2)cc1 (racemic) | 1.29 | –
CCc1ccc(C(=O)C(C)CN2CCSCC2)cc1 (racemic) | 0.97 | –
CCc1ccc(C(=O)C(C)CNC2CCCCC2)cc1 (racemic) | 0.95 | –
CCc1ccc(C(=O)C(C)Cc2ccncc2)cc1 (racemic) | 1.04 | –
CCc1cccc(C(=O)C(C)CN2CCCCC2)c1 (racemic) | 0.95 | –
CCc1ccccc1C(=O)C(C)CN1CCCCC1 (racemic) | 0.98 | –
CSCCOc1ccc(C(=O)C(C)CN2CCCCC2)cc1 (racemic) | 0.96 | –
Cc1ccc(C(=O)C(C)CN2CCCCC2)cc1 (racemic) | 0.99 | –
